The values that follow come from patent US12281057B2 (VERTEX PHARMACEUTICALS INCORPORATED, priority 2017, dated 2025).

SMILES strings stand for the structures.

The experiment deals with truncated form of human NaV 1.8 with full channel activity (Homo sapiens, UniProt Q9Y5Y9). Nature of the experiment: E-VIPR Assay Method B for detecting and measuring Nav inhibition (HEK cells, membrane potential FRET dyes, electrical stimulation). The class given is cell-based. The following applies: HEK cells expressing human NaV 1.8, Table 20B, read-out: Nav 1.8 MedChem Optical Assay EVIPR Assay Method B HS IC50. From the text: [formula] where X is the ratio response of the test compound. […] E-VIPR Assay Method B for Detecting and Measuring Nav Inhibition Properties Sodium ion channels are voltage-dependent proteins that can be activated by inducing membrane voltage changes by applying electric fields. The electrical stimulation instrument and methods of use, referred to as E-VIPR, are described in International Publication No. WO 2002/008748 A3 and C.-J. Huang et al. Characterization of voltage-gated sodium channel blockers by electrical stimulation and fluorescence detection of membrane potential, 24 Nature Biotech. 439-46 (2006), both of which are incorporated by reference in their entirety. The instrument comprises a microtiter plate handler, an optical system for exciting the coumarin dye while simultaneously recording the coumarin and oxonol emissions, a waveform generator, a current- or voltage-controlled amplifier, and parallel electrode pairs that are inserted into assay plate wells. Under integrated computer control, this instrument passes user-programmed electrical stimulus protocols to cells within the wells of the microtiter plate. […] Sigma #F4135), 1% NEAA (Non-Essential Amino Acids, Life Tech #11140), 1% HEPES (Life Tech #15630), 1% Pen-Strep (Penicillin-Streptomycin; […] Cells were expanded in vented cap flasks, with 95% humidity and 5% CO2. Reagents and Stock Solutions: • 100 mg/mL Pluronic F-127 (Sigma #P2443), in dry DMSO • Compound Plates: […] 5% KIR 2.1 Bacmam virus (produced in-house), prepared as described in Section 3.3 of J. A. Fornwald et al., Gene Expression in Mammalian Cells Using BacMam, a Modified Baculovirus System, 1350 Methods in Molecular Biology 95-116 (2016), the entire contents of which are incorporated by reference. • 5 mM DiSBAC6(3) (a voltage sensitive oxonol acceptor) (Aurora #00-100-010) in dry DMSO • 5 mM CC2-DMPE (a membrane-bound coumarin phospholipid FRET donor) (Aurora #00-100-008) in dry DMSO • 89 mM VABSC-1 in H2O. […] The solution was made by adding 10% Pluronic F127 stock equal to combined volumes of CC2-DMPE and DiSBAC6(3). The order of preparation was first mix Pluronic and CC2-DMPE, then add DiSBAC6(3), then while vortexing add Bath1/β-Cyclodextrin. […] Assay Protocol: […] Final DMSO concentration for all wells in the assay was 0.625% (0.75% DMSO was supplemented to the Compound Loading Buffer for a final DMSO concentration of 0.625%). 2) Hexyl Dye Solution was prepared. 3) Cell plates were prepared. On the day of the assay, the media was aspirated, and the cells were washed three times with 80 μL of Bath-1 buffer, maintaining 25 μL residual volume in each well. 4) 25 μL per well of Hexyl Dye Solution was dispensed into the cell plates. The cells were incubated for 20 minutes at room temp or ambient conditions in darkness. 5) 80 μL per well of Compound Loading Buffer was dispensed into compound plates. […] The mixture was incubated for 30 minutes at room temp/ambient conditions. […] A pre-stimulus recording was performed for 0.5 seconds to obtain the un-stimulated intensities baseline. The stimulatory waveform was followed by 0.5 seconds of post-stimulation recording to examine the relaxation to the resting state. Data Analysis: Data were analyzed and reported as normalized ratios of emission intensities measured in the 460 nm and 580 nm channels. The response as a function of time was reported as the ratios obtained using the following formula: [formula] The data were further reduced by calculating the initial (Ri) and final (Rf) ratios. These were the average ratio values during part or all of the pre-stimulation period and during sample points during the stimulation period. The fluorescence ratio (Rf/Ri) was then calculated and reported as a function of time. Control responses were obtained by performing assays in the presence of the positive control, and in the absence of pharmacological agents (DMSO vehicle negative control). Responses to the negative (N) and positive (P) controls were calculated as above. […]
Sequence of truncated form of human NaV 1.8 with full channel activity (Q9Y5Y9 126-1722 limits assumed): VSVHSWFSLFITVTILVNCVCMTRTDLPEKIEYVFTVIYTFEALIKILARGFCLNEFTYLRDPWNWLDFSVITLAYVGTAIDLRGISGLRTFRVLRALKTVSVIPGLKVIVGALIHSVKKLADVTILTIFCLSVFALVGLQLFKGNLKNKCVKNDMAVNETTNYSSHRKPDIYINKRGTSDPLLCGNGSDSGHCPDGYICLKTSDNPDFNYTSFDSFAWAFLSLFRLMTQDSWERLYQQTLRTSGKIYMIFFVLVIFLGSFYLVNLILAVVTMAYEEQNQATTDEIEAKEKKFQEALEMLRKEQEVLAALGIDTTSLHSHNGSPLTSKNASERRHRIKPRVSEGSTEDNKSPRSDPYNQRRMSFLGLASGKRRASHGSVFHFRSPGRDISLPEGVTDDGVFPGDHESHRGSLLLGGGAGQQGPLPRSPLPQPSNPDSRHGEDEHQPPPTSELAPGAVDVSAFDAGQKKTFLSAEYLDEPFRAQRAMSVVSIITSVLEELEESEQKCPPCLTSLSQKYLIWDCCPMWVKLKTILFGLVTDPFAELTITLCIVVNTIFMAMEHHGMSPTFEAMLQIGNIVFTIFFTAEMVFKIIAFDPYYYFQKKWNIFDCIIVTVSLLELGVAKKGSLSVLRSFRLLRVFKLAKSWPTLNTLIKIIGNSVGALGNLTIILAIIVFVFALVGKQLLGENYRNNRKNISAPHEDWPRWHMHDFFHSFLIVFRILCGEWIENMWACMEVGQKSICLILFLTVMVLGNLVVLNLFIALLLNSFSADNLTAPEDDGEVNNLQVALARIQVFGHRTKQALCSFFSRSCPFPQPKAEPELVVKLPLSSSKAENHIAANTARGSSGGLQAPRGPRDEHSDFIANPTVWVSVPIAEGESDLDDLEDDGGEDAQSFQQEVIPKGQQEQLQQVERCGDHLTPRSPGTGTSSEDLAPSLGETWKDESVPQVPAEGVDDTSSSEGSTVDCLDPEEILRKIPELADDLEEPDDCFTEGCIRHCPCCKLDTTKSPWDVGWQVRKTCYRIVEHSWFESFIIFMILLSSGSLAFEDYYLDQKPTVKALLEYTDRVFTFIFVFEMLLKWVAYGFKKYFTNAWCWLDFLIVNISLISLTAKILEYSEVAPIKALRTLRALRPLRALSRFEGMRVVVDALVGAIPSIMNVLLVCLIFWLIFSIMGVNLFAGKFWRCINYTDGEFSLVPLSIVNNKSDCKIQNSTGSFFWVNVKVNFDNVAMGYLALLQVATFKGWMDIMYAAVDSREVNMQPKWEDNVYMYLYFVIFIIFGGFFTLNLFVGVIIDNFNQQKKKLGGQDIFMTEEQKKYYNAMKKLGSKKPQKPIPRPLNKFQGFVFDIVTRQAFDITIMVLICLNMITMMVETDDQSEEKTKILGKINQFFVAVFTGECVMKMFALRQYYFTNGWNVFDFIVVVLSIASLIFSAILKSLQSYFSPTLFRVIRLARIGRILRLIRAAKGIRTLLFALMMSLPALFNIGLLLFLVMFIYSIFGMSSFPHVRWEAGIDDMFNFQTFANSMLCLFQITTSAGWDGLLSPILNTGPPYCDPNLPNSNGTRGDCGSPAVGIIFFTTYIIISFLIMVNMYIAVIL
As for `COc1cc(F)ccc1Oc1cc(Cl)c(Cl)cc1C(=O)Nc1cccc(C(N)=O)c1` [Compound 270, N-(3-carbamoylphenyl)-4,5-dichloro-2-(4-fluoro-2-methoxy-phenoxy)benzamide], the IC50 turned out to be 9 nM. In the case of `COc1ccc(Oc2cc(Cl)c(Cl)cc2C(=O)Nc2cccc(C(N)=O)c2)cc1F` [Compound 271, N-(3-carbamoylphenyl)-4,5-dichloro-2-(3-fluoro-4-methoxy-phenoxy)benzamide] it was 20 nM; in that of `NC(=O)c1cccc(NC(=O)c2cc(Cl)c(Cl)cc2Oc2ccc(OC(F)(F)F)cc2)c1` [Compound 272, N-(3-carbamoylphenyl)-4,5-dichloro-2-[4-(trifluoromethoxy)phenoxy]benzamide], 8 nM; in that of `COc1ccc(Oc2cc(Cl)c(Cl)cc2C(=O)Nc2cccc(C(N)=O)c2)c(F)c1` [Compound 273, N-(3-carbamoylphenyl)-4,5-dichloro-2-(2-fluoro-4-methoxy-phenoxy)benzamide], 30 nM. In the case of `COc1cc(F)ccc1Oc1cc(Cl)c(Cl)cc1C(=O)Nc1ccc(C(N)=O)cc1` [Compound 274, N-(4-carbamoylphenyl)-4,5-dichloro-2-(4-fluoro-2-methoxy-phenoxy)benzamide] it was 2 nM; in that of `Cc1cccc(Oc2ccc(F)cc2Cl)c1C(=O)Nc1cccc(C(N)=O)c1` [Compound 275, N-(3-carbamoylphenyl)-2-(2-chloro-4-fluoro-phenoxy)-6-methyl-benzamide], 165 nM. In the case of `NC(=O)c1cccc(NC(=O)c2cc(C(F)(F)F)ccc2Oc2ccc(F)cc2)c1` [Compound 276, N-(3-carbamoylphenyl)-2-(4-fluorophenoxy)-5-(trifluoromethyl)benzamide] it was 98 nM; in that of `NC(=O)c1cccc(NC(=O)c2cc(C(F)(F)F)ccc2Oc2ccccc2)c1` [Compound 277, N-(3-carbamoylphenyl)-2-phenoxy-5-(trifluoromethyl)benzamide], 250 nM.

For the molecule `COc1c(F)cccc1Oc1ccc(C(F)(F)F)cc1C(=O)Nc1cccc(C(N)=O)c1` [Compound 278, N-(3-carbamoylphenyl)-2-(3-fluoro-2-methoxyphenoxy)-5-(trifluoromethyl)benzamide], the IC50 was 21 nM. For `COc1ccc(Oc2ccc(C(F)(F)F)cc2C(=O)Nc2cccc(C(N)=O)c2)c(Cl)c1` [Compound 279, N-(3-carbamoylphenyl)-2-(2-chloro-4-methoxyphenoxy)-5-(trifluoromethyl)benzamide] the value was 56 nM; for `COc1ccc(Oc2ccc(C(F)(F)F)cc2C(=O)Nc2cccc(C(N)=O)c2)c(C)c1` [Compound 280, N-(3-carbamoylphenyl)-2-(4-methoxy-2-methylphenoxy)-5-(trifluoromethyl)benzamide], 42 nM; for `COc1ccc(Oc2ccc(C(F)(F)F)cc2C(=O)Nc2cccc(C(N)=O)c2)c(OC)c1` [Compound 281, N-(3-carbamoylphenyl)-2-(2,4-dimethoxyphenoxy)-5-(trifluoromethyl)benzamide], 39 nM.

Consider `CC(C)Oc1ccccc1Oc1ccc(C(F)(F)F)cc1C(=O)Nc1cccc(C(N)=O)c1` [Compound 282, N-(3-carbamoylphenyl)-2-(2-isopropoxyphenoxy)-5-(trifluoromethyl)benzamide], for which the IC50 amounted to 130 nM. With `NC(=O)c1cccc(NC(=O)c2cc(C(F)(F)F)ccc2Oc2ccccc2Cl)c1` [Compound 283, N-(3-carbamoylphenyl)-2-(2-chlorophenoxy)-5-(trifluoromethyl)benzamide], the IC50 was 82 nM. In the case of `Cc1cc(Cl)ccc1Oc1ccc(C(F)(F)F)cc1C(=O)Nc1cccc(C(N)=O)c1` [Compound 284, N-(3-carbamoylphenyl)-2-(4-chloro-2-methylphenoxy)-5-(trifluoromethyl)benzamide] it was 43 nM.

With `NC(=O)c1cccc(NC(=O)c2cc(C(F)(F)F)ccc2Oc2ccccc2OC(F)F)c1` [Compound 285, N-(3-carbamoylphenyl)-2-(2-(difluoromethoxy)phenoxy)-5-(trifluoromethyl)benzamide], the half-inhibitory concentration (IC50) came out at 72 nM.

Turning to `COc1cc(Cl)ccc1Oc1ccc(C(F)(F)F)cc1C(=O)Nc1cccc(C(N)=O)c1` [Compound 286, N-(3-carbamoylphenyl)-2-(4-chloro-2-methoxyphenoxy)-5-(trifluoromethyl)benzamide], the IC50 was found to be 20 nM. For `COc1ccccc1Oc1ccc(C(F)(F)F)cc1C(=O)Nc1cccc(C(N)=O)c1` [Compound 287, N-(3-carbamoylphenyl)-2-(2-methoxyphenoxy)-5-(trifluoromethyl)benzamide] the value was 84 nM. For `COc1cc(F)ccc1Oc1ccc(C(F)(F)F)cc1C(=O)Nc1cccc(C(N)=O)c1` [Compound 288, N-(3-carbamoylphenyl)-2-(4-fluoro-2-methoxyphenoxy)-5-(trifluoromethyl)benzamide] the value was 34 nM. In the case of `NC(=O)c1cccc(NC(=O)c2cc(C(F)(F)F)ccc2Oc2ccc(F)cc2Cl)c1` [Compound 289, N-(3-carbamoylphenyl)-2-(2-chloro-4-fluorophenoxy)-5-(trifluoromethyl)benzamide] it was 36 nM; in that of `Cc1cc(F)ccc1Oc1ccc(C(F)(F)F)cc1C(=O)Nc1cccc(C(N)=O)c1C` [Compound 291, N-(3-carbamoyl-2-methylphenyl)-2-(4-fluoro-2-methylphenoxy)-5-(trifluoromethyl)benzamide], 1400 nM; in that of `COc1ccc(NC(=O)c2cc(C(F)(F)F)ccc2Oc2ccc(F)cc2C)cc1C(N)=O` [Compound 292, N-(3-carbamoyl-4-methoxyphenyl)-2-(4-fluoro-2-methylphenoxy)-5-(trifluoromethyl)benzamide], 270 nM. Consider `Cc1cc(F)ccc1Oc1ccc(C(F)(F)F)cc1C(=O)Nc1ccc(Cl)c(C(N)=O)c1` [Compound 293, N-(3-carbamoyl-4-chlorophenyl)-2-(4-fluoro-2-methylphenoxy)-5-(trifluoromethyl)benzamide], for which the IC50 was 33 nM. In the case of `Cc1cc(F)ccc1Oc1ccc(C(F)(F)F)cc1C(=O)Nc1ccc(C)c(C(N)=O)c1` [Compound 294, N-(3-carbamoyl-4-methylphenyl)-2-(4-fluoro-2-methylphenoxy)-5-(trifluoromethyl)benzamide] it was 37 nM; in that of `Cc1cc(F)ccc1Oc1ccc(C(F)(F)F)cc1C(=O)Nc1cccc(C(N)=O)c1` [Compound 296, N-(3-carbamoylphenyl)-2-(4-fluoro-2-methylphenoxy)-5-(trifluoromethyl)benzamide], 18 nM. `Cc1cc(F)ccc1Oc1ccc(C(F)(F)F)cc1C(=O)Nc1ccc(C(N)=O)cc1` [Compound 297]: the IC50 came to 40 nM.

With `COc1cc(F)ccc1Oc1cc(C(F)(F)F)ccc1C(=O)Nc1cccc(C(N)=O)c1` [Compound 298, N-(3-Carbamoylphenyl)-2-[4-fluoro-2-(methoxy)phenoxy]-4-(trifluoromethyl)benzamide], the half-maximal inhibitory concentration (IC50) stood at 14 nM. In the case of `COc1ccc(Oc2cc(C(F)(F)F)ccc2C(=O)Nc2cccc(C(N)=O)c2)c(Cl)c1` [Compound 299, N-(3-carbamoylphenyl)-2-[2-chloro-4-(methoxy)phenoxy]-4-(trifluoromethyl)benzamide] it was 130 nM. As for `NC(=O)c1cccc(NC(=O)c2ccc(C(F)(F)F)cc2Oc2ccc(F)cc2)c1` [Compound 300, N-(3-carbamoylphenyl)-2-[4-fluorophenoxy]-4-(trifluoromethyl)benzamide], the half-inhibitory concentration (IC50) turned out to be 61 nM.

Usually IC50 stands for the point on the concentration scale where inhibition reaches its midpoint.
